Data: patent US20040092549A1, “Methods and compositions for selective cancer chemotherapy” (priority 2001, published 2004)

How the values were obtained:
[1] = system: melanoma cells; settings: treatment as in Example 2
Experimental: (§2) Cultures are re-fed periodically with additions of respective supplements, with or without medium change as indicated. Controls consist of cells receiving growth medium without added supplement.
(§3) The following day, threonate treatment is initiated using one of two protocols.
(§4) In one protocol (short exposure), monolayers are washed and exposed directly to 1 mL/well of 7.5-30 mM threonate (prepared in Ringer's solution) for brief periods at 37 C. as described by Fay and Verlangieri (referenced above). […] After exposure, the solution is removed and replaced by growth medium. […]
(§5) Cell survival following treatment is assessed at predetermined intervals by taking viable cell counts using a Neubauer haemocytometer. Viable cells are scored as those capable excluding trypan blue as previously described (Harakeh and Jariwalla, Am.J.Clin.Nutr. 54:1231S-1235S (1991)). […]
(§6) The induction of apoptosis following treatment of various tumor cell types with the Test compositions and controls described in Example 1 is evaluated using an enzyme-linked immunoassay (“ELISA”) developed by Boehringer-Mannheim (Indianapolis, Ind.). […] The presence and level of nucleosomal fragments in cytoplasmic lysates after different treatments is determined using the procedure specified in the cell-death detection ELISA kit, supplied by Boehringer-Mannheim. […]

[2] = system: hepatoma cells; settings: treatment as in Example 2
Experimental: as §2, §3, §4, §5, §6

[3] = system: Malme-3M Melanoma; assay: Cell-death detection ELISA (apoptosis), Malme-3M melanoma; format: cell-based, Human
Experimental: (§1) Working stock solutions (10× strength) are made in sterile water immediately before use. For comparative evaluation, stock solutions of Test 2 and Test 4 solutions are prepared in sterile water, normalized to contain AA equivalents identical to the Test 1 stock. These stocks are stored at room temperature for use in evaluations. […] Parallel sets of wells are treated similarly with stock solutions of CA+CT and CA alone, containing the same equivalents of AA as Test 1. Control cultures are treated with an equivalent volume of sterile water. Periodic treatment with these compositions is repeated at 1-2 day intervals by direct addition of fresh solutions (without change of growth medium). […] Briefly, the ELISA assay is carried out as follows. […] The “Number of Treatments” is the total number of treatments with the Composition. The “Maximum Fold Increase in Apoptosis” is the maximal fold change in apoptosis over the control and the “Maximum Dose” is the concentration of the Composition which induces the “Maximum Fold Apoptosis” compared to the control.

[4] = system: WRL-68 Normal Human Liver Cells; assay: Cell-death detection ELISA (apoptosis), WRL-68 normal liver cells; format: cell-based
Experimental: as §1

[5] = system: Malme-3 Normal Human Skin Fibroblasts; assay: Cell-death detection ELISA (apoptosis), Malme-3 normal skin fibroblasts; format: cell-based
Experimental: as §1

[6] = system: T-84 Colon Carcinoma; assay: Cell-death detection ELISA (apoptosis), T-84 colon carcinoma; format: cell-based, Human
Experimental: as §1

[7] = system: SK-N-MC Neuroblastoma; assay: Cell-death detection ELISA (apoptosis), SK-N-MC neuroblastoma; format: cell-based, Human
Experimental: as §1

[8] = system: SK-Hep-1 Liver adenocarcinoma; assay: Cell-death detection ELISA (apoptosis), SK-Hep-1 liver adenocarcinoma; format: cell-based, Human
Experimental: as §1

[9] = concentration causing 2-fold change in apoptosis over control
[10] = concentration inducing the maximum fold apoptosis
[11] = maximal fold change over control

Molecule	cell death (apoptosis) in melanoma cells as compared to normal cellular counterparts [1]	cell death (apoptosis) in hepatoma cells as compared to normal cellular counterparts [2]	MINIMUM APOPTOTIC DOSE, DOSE CONC. (%) [3, 9] [%]	MAXIMUM FOLD INCREASE IN APOPTOSIS, DOSE CONC. (%) [3, 10] [%]	MAXIMUM FOLD INCREASE IN APOPTOSIS [3, 11] [fold]	MINIMUM APOPTOTIC DOSE, DOSE CONC. (%) [4, 9] [%]	MAXIMUM FOLD INCREASE IN APOPTOSIS, DOSE CONC. (%) [4, 10] [%]	MAXIMUM FOLD INCREASE IN APOPTOSIS [4, 11] [fold]	MINIMUM APOPTOTIC DOSE, DOSE CONC. (%) [5, 9] [%]	MAXIMUM FOLD INCREASE IN APOPTOSIS, DOSE CONC. (%) [5, 10] [%]	MAXIMUM FOLD INCREASE IN APOPTOSIS [5, 11] [fold]	MINIMUM APOPTOTIC DOSE, DOSE CONC. (%) [6, 9] [%]	MAXIMUM FOLD INCREASE IN APOPTOSIS, DOSE CONC. (%) [6, 10] [%]	MAXIMUM FOLD INCREASE IN APOPTOSIS [6, 11] [fold]	MINIMUM APOPTOTIC DOSE, DOSE CONC. (%) [7, 9] [%]	MAXIMUM FOLD INCREASE IN APOPTOSIS, DOSE CONC. (%) [7, 10] [%]	MAXIMUM FOLD INCREASE IN APOPTOSIS [7, 11] [fold]	MINIMUM APOPTOTIC DOSE, DOSE CONC. (%) [8, 9] [%]	MAXIMUM FOLD INCREASE IN APOPTOSIS, DOSE CONC. (%) [8, 10] [%]	MAXIMUM FOLD INCREASE IN APOPTOSIS [8, 11] [fold]
Calcium Threonate [calcium threonate (CT)]	selective dose-dependent cell death (apoptosis)	selective dose-dependent cell death (apoptosis)																		
O=C1O[C@H]([C@@H](O)CO)C(O)=C1O [ascorbic acid (AA), Ascorbic Acid]	selective dose-dependent cell death (apoptosis)																			
Calcium Ascorbate			0.012	0.025	92.8	0.012	0.012	2.22	0.025	0.025	2.16	>0.06	0.033	1.77	0.015	0.015	5.03	0.006	0.033	12.04
